In US20070219186A1, “Pyrazolo[1,5-A]pyrimidine derivatives and methods of use thereof” (priority 2006, published 2007):
Where two headings read alike, the source gives them in different places. Each block holds one molecule with its values, some of them ahead of it.

Biological target: T1, human B-Raf (Homo sapiens, UniProt P15056)
T1 construct: Flag; GST; made in house; host or cells: Sf9 insect cells (B-Raf); E. coli (MEK1-GST)
Experiment: B-Raf Kinase to MEK1 ELISA
Format: biochemical
Settings: for inhibition at 10 µM: read-out: % Inhib./10 uM
Method in brief: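 Read-out is a DELFIA europium signal from phospho-MEK1 (Ser217/221) antibody after capture of GST-MEK1 (50 nM final) on anti-GST plates. Phosphorylation comes from Sf9-expressed Flag/GST human B-Raf (~20 ng) with ATP/MgCl2, 60 min RT, pH 7.2 MOPS.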

[1] = median, cpd concentrations from 10 μM to 30 nM in half log dilutions, read-out: Median IC50

T1 sequence (P15056 whole entry): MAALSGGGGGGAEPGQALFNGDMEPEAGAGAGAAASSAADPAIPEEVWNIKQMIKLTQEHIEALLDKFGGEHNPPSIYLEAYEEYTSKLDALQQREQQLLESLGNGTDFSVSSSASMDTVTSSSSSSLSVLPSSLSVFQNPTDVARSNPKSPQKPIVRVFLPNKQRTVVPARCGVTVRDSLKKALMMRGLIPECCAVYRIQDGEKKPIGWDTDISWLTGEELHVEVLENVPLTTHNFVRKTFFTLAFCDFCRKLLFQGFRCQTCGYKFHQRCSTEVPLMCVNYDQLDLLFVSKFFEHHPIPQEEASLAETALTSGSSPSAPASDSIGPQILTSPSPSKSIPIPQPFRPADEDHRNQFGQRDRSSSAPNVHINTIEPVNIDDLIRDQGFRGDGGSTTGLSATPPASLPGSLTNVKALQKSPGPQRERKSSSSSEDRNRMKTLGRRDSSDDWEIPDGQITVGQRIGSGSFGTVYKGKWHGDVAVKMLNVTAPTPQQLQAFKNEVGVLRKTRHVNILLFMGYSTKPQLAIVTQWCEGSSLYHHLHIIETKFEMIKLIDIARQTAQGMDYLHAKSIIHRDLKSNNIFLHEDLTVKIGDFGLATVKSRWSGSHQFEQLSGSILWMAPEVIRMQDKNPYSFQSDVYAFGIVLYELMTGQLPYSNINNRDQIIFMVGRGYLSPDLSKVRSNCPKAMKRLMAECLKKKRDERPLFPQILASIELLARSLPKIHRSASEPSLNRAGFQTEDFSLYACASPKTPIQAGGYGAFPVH

IC50 [1]: > 10000 nM | inhibition at 10 µM: 18%
Molecule: Cc1ccc(C(=O)Nc2cccc(-c3ccnc4c(-c5nn[nH]n5)cnn34)c2)cc1C(F)(F)F [Example 66, 4-methyl-N-{3-[3-(2H-tetrazol-5-yl)pyrazolo[1,5-a]pyrimidin-7-yl]phenyl}-3-(trifluoromethyl)benzamide]

IC50 [1]: > 10000 nM | inhibition at 10 µM: 14%
Molecule: CCOC(=O)c1cnn2c(-c3ccc(OC)c(NC(=O)c4cccc(C(F)(F)F)c4)c3)ccnc12 [Example 88, ethyl 7-(4-methoxy-3-{[3-(trifluoromethyl)benzoyl]amino}phenyl)pyrazolo[1,5-a]pyrimidine-3-carboxylate]

IC50 [1]: > 10000 nM | inhibition at 10 µM: 0%
Molecule: CCOC(=O)c1cnn2c(-c3cccc(NC(=O)Cc4cccc(OC)c4)c3)ccnc12 [Example 96, ethyl 7-(3-{[(3-methoxyphenyl)acetyl]amino}phenyl)pyrazolo[1,5-a]pyrimidine-3-carboxylate]

IC50 [1]: > 10000 nM | inhibition at 10 µM: 26%
Molecule: O=C(Nc1cccc(-c2ccnc3c(-c4ccc(C(F)(F)F)cc4)cnn23)c1)c1cccc(C(F)(F)F)c1 [Example 292, 3-(trifluoromethyl)-N-(3-{3-[4-(trifluoromethyl)phenyl]pyrazolo[1,5-a]pyrimidin-7-yl}phenyl)benzamide]

IC50 [1]: 116 nM | inhibition at 10 µM: 68%
Molecule: COCCOC(=O)c1cnn2c(-c3cccc(NC(=O)c4cccc(C(F)(F)F)c4)c3)ccnc12 [Example 128, 2-methoxyethyl 7-(3-{[3-(trifluoromethyl)benzoyl]amino}phenyl)pyrazolo[1,5-a]pyrimidine-3-carboxylate]

IC50: 2100 nM | inhibition at 10 µM: 75%
Molecule: COc1ccc(C(=O)Nc2cccc(-c3ccnc4c(Br)cnn34)c2)cc1C(F)(F)F [Example 162, N-[3-(3-bromopyrazolo[1,5-a]pyrimidin-7-yl)phenyl]-4-methoxy-3-(trifluoromethyl)benzamide]

IC50 [1]: 440 nM | inhibition at 10 µM: 85%
Molecule: O=C(Nc1cccc(-c2ccnc3c(-c4cccnc4)cnn23)c1)Nc1cccc(C(F)(F)F)c1 [Example 173, N-[3-(3-pyridin-3-ylpyrazolo[1,5-a]pyrimidin-7-yl)phenyl]-N′-[3-(trifluoromethyl)phenyl]urea]

IC50 [1]: > 10000 nM | inhibition at 10 µM: 7%
Molecule: CCOC(=O)c1cnn2c(-c3cccc(NC(=O)CC(C)(C)C)c3)ccnc12 [Example 225, ethyl7-{3-[(3,3-dimethylbutanoyl)amino]phenyl}pyrazolo[1,5-a]pyrimidine-3-carboxylate]

inhibition at 10 µM: 50%
Molecule: CCNC(=O)c1cnn2c(-c3cccc(NC(=O)c4cccc(C(F)(F)F)c4)c3)ccnc12 [Example 51, N-ethyl-7-(3-{[3-(trifluoromethyl)benzoyl]amino}phenyl)pyrazolo[1,5-a]pyrimidine-3-carboxamide]

More lines, now with the values behind:

Molecule: CCOC(=O)c1cnn2c(-c3cccc(NC(=O)c4cnc(C)cn4)c3)ccnc12 [Example 216, Ethyl7-(3-{[(5-methylpyrazin-2-yl)carbonyl]amino}phenyl)pyrazolo[1,5-a]pyrimidine-3-carboxylate]
IC50 [1]: > 10000 nM | inhibition at 10 µM: 3%

Molecule: O=C(Nc1cccc(-c2ccnc3c(C(=O)NCCN4CCOCC4)cnn23)c1)c1cccc(C(F)(F)F)c1 [Example 52, N-(2-morpholin-4-ylethyl)-7-(3-{[3-(trifluoromethyl)benzoyl]amino}phenyl)pyrazolo[1,5-a]pyrimidine-3-carboxamide]
IC50 [1]: 8000 nM | inhibition at 10 µM: 60%

Molecule: CCOC(=O)c1cnn2c(-c3cccc(NC(=O)c4ccc(-c5cc(C(F)(F)F)nn5C)s4)c3)ccnc12 [Example 224, ethyl7-{3-[({5-[1-methyl-3-(trifluoromethyl)-1H-pyrazol-5-yl]-2-thienyl}carbonyl)amino]phenyl}pyrazolo[1,5-a]pyrimidine-3-carboxylate]
IC50 [1]: > 10000 nM | inhibition at 10 µM: 39%

Molecule: CCOC(=O)c1cnn2c(-c3cccc(NC(=O)c4cc(C(F)(F)F)ccc4C)c3)ccnc12 [Example 104, ethyl 7-(3-{[2-methyl-5-(trifluoromethyl)benzoyl]amino}phenyl)pyrazolo[1,5-a]pyrimidine-3-carboxylate]
IC50 [1]: 10100 nM | inhibition at 10 µM (single point assay, 10 uM): 1%

Molecule: CCOC(=O)c1cnn2c(-c3cccc(NC(=O)c4cc(Cl)ccn4)c3)ccnc12 [Example 217, ethyl7-(3-{[(4-chloropyridin-2-yl)carbonyl]amino}phenyl)pyrazolo[1,5-a]pyrimidine-3-carboxylate]
IC50 [1]: > 10000 nM | inhibition at 10 µM: 34%

Molecule: CCOC(=O)c1cnn2c(-c3cccc(NC(=O)Nc4ccc(C)c(Cl)c4)c3)ccnc12 [Example 82, ethyl 7-[3-({[(3-chloro-4-methylphenyl)amino]carbonyl}amino)phenyl]pyrazolo[1,5-a]pyrimidine-3-carboxylate]
IC50 [1]: 570 nM | inhibition at 10 µM: 77%

Molecule: O=C(Nc1cccc(-c2ccnc3c(-c4ccncc4)cnn23)c1)Nc1cccc(C(F)(F)F)c1 [Example 192, N-[3-(3-pyridin-4-ylpyrazolo[1,5-a]pyrimidin-7-yl)phenyl]-N′-[3-(trifluoromethyl)phenyl]urea]
IC50 [1]: 1300 nM | inhibition at 10 µM: 72%

Molecule: O=C(Nc1cccc(-c2ccnc3c(Br)cnn23)c1)Nc1ccc(F)c(C(F)(F)F)c1 [Example 167, N-[3-(3-bromopyrazolo[1,5-a]pyrimidin-7-yl)phenyl]-N′-[4-fluoro-3-(trifluoromethyl)phenyl]urea]
IC50 [1]: 4990 nM | inhibition at 10 µM: 59%

Molecule: O=C(Nc1cccc(-c2ccnc3cc(-c4ccnc(NCCCN5CCOCC5)c4)nn23)c1)c1cccc(C(F)(F)F)c1 [Example 258, N-[3-(2-{2-[(3-morpholin-4-ylpropyl)amino]pyridin-4-yl}pyrazolo[1,5-a]pyrimidin-7-yl)phenyl]-3-(trifluoromethyl)benzamide]
IC50: 134 nM | % Inhib./10 uM (single point assay, 10 uM): 95%

Molecule: ethyl 7-{3-[(pyridin-3-ylcarbonyl)amino]phenyl}pyrazolo[1,5-a]pyrimidine-3-carboxylate [Example 204]
IC50 [1]: > 10000 nM | % Inhib./10 uM (single point assay, 10 uM): 12%

Molecule: CCOC(=O)c1cnn2c(-c3cccc(NC(=O)c4cccc(OC(F)(F)F)c4)c3)ccnc12 [Example 7, ethyl 7-(3-{[3-(trifluoromethoxy)benzoyl]amino}phenyl)pyrazolo[1,5-a]pyrimidine-3-carboxylate]
IC50 [1]: 1430 nM | inhibition at 10 µM (single point assay, 10 uM): 67%

Molecule: CCOC(=O)c1cnn2c(-c3cccc(NC(=O)c4ccc(F)cc4C(F)(F)F)c3)ccnc12 [Example 76, ethyl 7-(3-{[4-fluoro-2-(trifluoromethyl)benzoyl]amino}phenyl)pyrazolo[1,5-a]pyrimidine-3-carboxylate]
IC50 [1]: > 10000 nM | inhibition at 10 µM: 0%

Molecule: CCOC(=O)c1cnn2c(-c3cccc(NC(=O)Nc4ccc(Cl)cc4)c3)ccnc12 [Example 34, ethyl 7-[3-({[(4-chlorophenyl)amino]carbonyl}amino)phenyl]pyrazolo[1,5-a]pyrimidine-3-carboxylate]
IC50 [1]: > 10000 nM | inhibition at 10 µM: 37%

Molecule: Cc1ccc(C(=O)Nc2cccc(-c3ccnc4c(-c5cccc(O)c5)cnn34)c2)cc1C(F)(F)F [Example 181, N-{3-[3-(3-hydroxyphenyl)pyrazolo[1,5-a]pyrimidin-7-yl]phenyl}-4-methyl-3-(trifluoromethyl)benzamide]
IC50: 290 nM | inhibition at 10 µM: 87%

Molecule: O=C(Nc1cccc(-c2ccnc3cc(-c4ccnc(NCCCN5CCCCC5)c4)nn23)c1)c1cccc(C(F)(F)F)c1 [Example 259, N-[3-(2-{2-[(3-piperidin-1-ylpropyl)amino]pyridin-4-yl}pyrazolo[1,5-a]pyrimidin-7-yl)phenyl]-3-(trifluoromethyl)benzamide]
IC50 [1]: 91.4 nM | inhibition at 10 µM: 99%

Molecule: CCOC(=O)c1cnn2c(-c3cccc(NC(=O)c4nn(-c5ccccc5)nc4C)c3)ccnc12 [Example 220, ethyl7-(3-{[(5-methyl-2-phenyl-2H-1,2,3-triazol-4-yl)carbonyl]amino}phenyl)pyrazolo[1,5-a]pyrimidine-3-carboxylate]
IC50 [1]: > 10000 nM | inhibition at 10 µM: 30%

Molecule: CCOC(=O)c1cnn2c(-c3ccc(Cl)c(NC(=O)c4ccc(C)c(C(F)(F)F)c4)c3)ccnc12 [Example 106, ethyl 7-(4-chloro-3-{[4-methyl-3-(trifluoromethyl)benzoyl]amino}phenyl)pyrazolo[1,5-a]pyrimidine-3-carboxylate]
IC50 [1]: > 10000 nM | inhibition at 10 µM: 2%

Molecule: CCOC(=O)c1cnn2c(-c3cccc(NC(=O)Cc4cc(C(F)(F)F)cc(C(F)(F)F)c4)c3)ccnc12 [Example 99, ethyl 7-[3-({[3,5-bis(trifluoromethyl)phenyl]acetyl}amino)phenyl]pyrazolo[1,5-a]pyrimidine-3-carboxylate]
IC50 [1]: > 10000 nM | inhibition at 10 µM: 13%

Molecule: CN(C)CC(=O)Nc1cccc(-c2cnn3c(-c4cccc(NC(=O)c5cccc(C(F)(F)F)c5)c4)ccnc23)c1 [Example 253, N-[3-(3-{3-[(N,N-dimethylglycyl)amino]phenyl}pyrazolo[1,5-a]pyrimidin-7-yl)phenyl]-3-(trifluoromethyl)benzamide]
IC50 [1]: 40 nM | inhibition at 10 µM: 97%

Molecule: CCOC(=O)c1cnn2c(-c3cccc(NC(=O)Nc4ccc(OC(F)(F)F)cc4)c3)ccnc12 [Example 23, ethyl 7-{3-[({[4-(trifluoromethoxy)phenyl]amino}carbonyl)amino]phenyl}pyrazolo[1,5-a]pyrimidine-3-carboxylate]
IC50 [1]: > 10000 nM | inhibition at 10 µM: 20%

Molecule: CN(C)CCc1ccccc1-c1cnn2c(-c3cccc(NC(=O)c4cccc(C(F)(F)F)c4)c3)ccnc12 [Example 280, N-[3-(3-{2-[2-(dimethylamino)ethyl]phenyl}pyrazolo[1,5-a]pyrimidin-7-yl)phenyl]-3-(trifluoromethyl)benzamide]
IC50 [1]: 318 nM | inhibition at 10 µM: 76%
